Experimental data reported in PubChem BioAssay (NCI).
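Where inhibition never reached the appropriate level, the endpoint shown equals the highest concentration tested. Otherwise, values were interpolated linearly from a five-concentration, 48-hour dose response in 96-well plates. The concentration for 50% growth inhibition is given as GI50. TGI marks complete inhibition of growth.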

Tests used:
Assay in all cases: NCI anticancer screen, dose series, 48 h
786-0 renal = test system: 786-0 renal
A498 renal = test system: A498 renal
A549 NSCLC = test system: A549 NSCLC
ACHN renal = test system: ACHN renal
BT-549 breast = test system: BT-549 breast
CAKI-1 renal = test system: CAKI-1 renal
CCRF-CEM leukemia = test system: CCRF-CEM leukemia
COLO 205 colon = test system: COLO 205 colon
DU-145 prostate = test system: DU-145 prostate
EKVX NSCLC = test system: EKVX NSCLC
HCC-2998 colon = test system: HCC-2998 colon
HCT-116 colon = test system: HCT-116 colon
HCT-15 colon = test system: HCT-15 colon
HL-60(TB) leukemia = test system: HL-60(TB) leukemia
HOP-62 NSCLC = test system: HOP-62 NSCLC
HOP-92 NSCLC = test system: HOP-92 NSCLC
HS 578T breast = test system: HS 578T breast
HT29 colon = test system: HT29 colon
IGROV1 ovarian = test system: IGROV1 ovarian
K-562 leukemia = test system: K-562 leukemia
KM12 colon = test system: KM12 colon
LOX IMVI melanoma = test system: LOX IMVI melanoma
M14 melanoma = test system: M14 melanoma
MALME-3M melanoma = test system: MALME-3M melanoma
MCF7 breast = test system: MCF7 breast
MDA-MB-231 breast = test system: MDA-MB-231 breast
MDA-MB-435 = test system: MDA-MB-435
MDA-MB-468 breast = test system: MDA-MB-468 breast
MOLT-4 leukemia = test system: MOLT-4 leukemia

`O=C(CS(=O)(=O)c1oc(-c2ccc(Cl)cc2)nc1S(=O)(=O)c1ccccc1)N1CCCC1` gave a GI50 (786-0 renal) of 1.51 µM, a TGI (786-0 renal) of 3.01 µM and a GI50 (A498 renal) of 14.2 µM. For the same compound, the TGI (A498 renal) was 27.3 µM, the GI50 (A549 NSCLC) was 14.3 µM and the TGI (A549 NSCLC) was 31.6 µM. The GI50 (ACHN renal) was 1.52 µM, the TGI (ACHN renal) was 2.85 µM and the GI50 (BT-549 breast) was 1.88 µM. For the same compound, the TGI (BT-549 breast) was 3.48 µM, the GI50 (CAKI-1 renal) was 1.41 µM and the TGI (CAKI-1 renal) was 2.75 µM. For the same compound, the GI50 (CCRF-CEM leukemia) was 0.4 µM, the TGI (CCRF-CEM leukemia) was 2.36 µM and the GI50 (COLO 205 colon) was 2.14 µM. For the same compound, the TGI (COLO 205 colon) was 4.68 µM, the GI50 (DU-145 prostate) was 1.76 µM and the TGI (DU-145 prostate) was 3.37 µM. For the same compound, the GI50 (EKVX NSCLC) was 2.03 µM, the TGI (EKVX NSCLC) was 4.9 µM and the GI50 (HCC-2998 colon) was 14.5 µM. For the same compound, the TGI (HCC-2998 colon) was 28.7 µM, the GI50 (HCT-116 colon) was 1.81 µM and the TGI (HCT-116 colon) was 4.07 µM. The GI50 (HCT-15 colon) was 1.43 µM, the TGI (HCT-15 colon) was 2.99 µM and the GI50 (HL-60(TB) leukemia) was 1.31 µM. For the same compound, the TGI (HL-60(TB) leukemia) was greater than 100 µM, the GI50 (HOP-62 NSCLC) was 17.8 µM and the TGI (HOP-62 NSCLC) was 34 µM. For the same compound, the GI50 (HOP-92 NSCLC) was 2.38 µM, the TGI (HOP-92 NSCLC) was 4.68 µM and the GI50 (HS 578T breast) was 7.21 µM. For the same compound, the TGI (HS 578T breast) was 53.9 µM, the GI50 (HT29 colon) was 2.07 µM and the TGI (HT29 colon) was 5.07 µM. The GI50 (IGROV1 ovarian) was 13.1 µM, the TGI (IGROV1 ovarian) was 29.3 µM and the GI50 (K-562 leukemia) was 0.707 µM. It also gave a TGI (K-562 leukemia) greater than 100 µM, a GI50 (KM12 colon) of 16.8 µM and a TGI (KM12 colon) of 33 µM. For the same compound, the GI50 (LOX IMVI melanoma) was 1.49 µM, the TGI (LOX IMVI melanoma) was 2.86 µM and the GI50 (M14 melanoma) was 1.88 µM. For the same compound, the TGI (M14 melanoma) was 4.07 µM, the GI50 (MALME-3M melanoma) was 1.69 µM and the TGI (MALME-3M melanoma) was 3.09 µM. For the same compound, the GI50 (MCF7 breast) was 1.47 µM, the TGI (MCF7 breast) was 3.34 µM and the GI50 (MDA-MB-231 breast) was 1.71 µM. The TGI (MDA-MB-231 breast) was 3.1 µM, the GI50 (MDA-MB-435) was 2.88 µM and the TGI (MDA-MB-435) was 13.6 µM. For the same compound, the GI50 (MDA-MB-468 breast) was 1.08 µM, the TGI (MDA-MB-468 breast) was 2.49 µM and the GI50 (MOLT-4 leukemia) was 2.38 µM. The TGI (MOLT-4 leukemia) was greater than 100 µM.
